Test results: patent US7153524B2, “Method for improving adsorption of a drug from ethylene oxide derivative” (Astellas Pharma Inc., priority 2002, dated 2006)
Converted amounts (≈) assume the structure as drawn. Where a name gives a salt, the structure may show the parent alone.

How the values were obtained:
[1] = Rate of adsorption of compound A on the oil-gel phase in presence of POE excipients (Experiment 3); type: physicochemical
Protocol: (§1) In order to study adsorption of a drug from an aqueous phase onto an oil phase (model of mucous layers), an in vitro test system wherein mixing of the oil components in the aqueous phase is prevented was constructed by immobilizing the oil phase with a gelling agent and separating it from the aqueous phase of a drug suspended in a mucin solution. Immobilization of the oil phase was performed by adding 120 mg of an oil gelling agent, which is a natural oil and fat fatty acid extracted from castor oil (Johnson Co., Ltd.), to 2 mL of medium chain fatty acid triglyceride (Nihon Oils and Fats Co., Ltd.; brand name: Panaset) and preparing an oil gel in a test tube (inner diameter of 1 cm, Eiken tube No. 5). A solution of 600 μg of compound A suspended in 2 mL of an aqueous 0.8% mucin solution was prepared and brought into contact with the oil phase (n=6). When Macrogol 6000 was added to the aqueous phase, the concentration was brought to 3.5% (n=3 to 6). After setting the solution aside for two hours, the aqueous phase was recovered and compound A was assayed by HPLC. Furthermore, the surface of the oil phase was washed with methanol and compound A in the recovered solution was assayed by HPLC.
The rate of adsorption of a drug of compound A on the oil phase was measured by the same method as in Example 2.

[2] = Solubility of compound A in water and components of mucus layer; type: physicochemical
Protocol: Compound A is a drug that acts directly from the gastric lumen side on the H. pylori that lives in the mucous layers and therefore, the case wherein after dissolution (I), the bulk powder that has been administered transfers (IV) and the case where the bulk powder is dissolved (II) after transferring to the mucous layers (III) will be considered. The effects of Macrogol 6000 on the course of dissolution of compound A were studied. A specific amount of compound A was added to ion-exchanged water, a 0.8% mucin (Sigma) solution, a 6.2% BSA (Sigma) solution, and linoleic acid (Sigma), and various drugs suspensions were obtained by exposure for 20 minutes to ultrasonic waves (Sono Cleaner, Kaijo Corporation). The rest of the procedure was performed as in Example 1 and the following samples were obtained.
Solubility of compound A in water was calculated by filtering the liquid after dispersion using a hydrophilic filter (0.45 μm, Advantec) and submitting the product to assay by high-performance liquid chromatography (HPLC hereafter) (n=2, sample (1); n=3, sample (2)).
Solubility of the drug in mucin was calculated by filtering the liquid after dispersion using a hydrophilic filter (0.8 μm, Advantec) and submitting the product to assay by HPLC (n=3, samples (3) and (4)).
The liquid after dispersion was filtered with a hydrophilic filter (0.45 μm, Advantec), absorbance at 370 nm and 550 nm (corrected for turbidity) was determined under room temperature using an ultraviolet-visible spectrophotometer, and solubility was calculated (n=3, samples (5) and (6)).
The liquid after dispersion was filtered with a hydrophilic filter (0.45 μm, Advantec), absorbance at 366 nm and 550 nm (corrected for turbidity) was determined under room temperature using an ultraviolet-visible spectrophotometer, and solubility was calculated (n=3, samples (7) and (8)).

H. pylori [3] = test: Minimum concentration at which an increase in bacteria is inhibited; type: cell-based
H. pylori [4] = test: In vivo anti-H. pylori activity, Mongolian gerbil infection model (Experiment 4); design: species or system Mongolian gerbils; conditions: for Clearance rate: oral twice a day for three days
Protocol: In vivo anti-H. pylori activity was evaluated with animal experiments using Mongolian gerbil infection models. […] The drug was administered twice a day for three days at an administration volume of 20 mL/kg using an oral stomach tube. The stomach was autopsied and excised and the number of H. pylori in the stomach were measured the day after the final administration. In vivo anti-H. pylori activity was evaluated from clearance, that is, the ratio of the number of cases in which H. pylori was identified and the number of cases in which the number of bacteria after treatment was below the detection limit.

[5] = Adsorption of compound A from aqueous phase onto immobilized oil-gel phase (Experiment 2); type: physicochemical; conditions: for adsorption amount of chemical compound A: drug charge 600 μg, 2 h
Protocol: as §1

H. pylori [6] = conditions: compound used alone; cited from earlier work
[7] = Adsorption of various compounds on the oil-gel phase (Experiment 5); type: physicochemical; conditions: 0.8% mucin, 600 μg loading, 2 hours
Protocol: When Macrogol 6000 was added to the aqueous phase, it was brought to 3.5% (n=3,6). […] The compounds that were used were […], nicardipine hydrochloride, compound B, and compound C. […] Furthermore, the oil phase surface was washed with methanol and the drug adsorbed on the oil phase in the recovered solution was assayed with an ultraviolet-visible spectrophotometer for each compound.

SMILES: CCCCCC/C=C/Cc1c(C)c(=O)c2ccccc2n1O [compound A, 1-hydroxy-2-(2-trans-nonenyl)-3-methyl-4(1H)-quinolone]
- Adsorption on the oil-gel phase, amount(%) ([1]; excipient HCO 60 (n 60, m 10)): 33 ± 14%
- Adsorption on the oil-gel phase, amount(%) ([1]; excipient HCO 80 (n 80, m 13.3)): 17 ± 10%
- Adsorption on the oil-gel phase, amount(%) ([1]; excipient HCO 100 (n 100, m 16.7)): 37 ± 11%
- Adsorption on the oil-gel phase, amount(%) ([1]; excipient PEG400 (n 8, m 8)): 42 ± 9%
- Adsorption on the oil-gel phase, amount(%) ([1]; excipient PEG 4000 (n 72, m 72)): 42 ± 4 %
- Adsorption on the oil-gel phase, amount(%) ([1]; excipient PEG 6000 (n 188, m 188)): 72 ± 3 %
- Adsorption on the oil-gel phase, amount(%) ([1]; excipient PEG 20000 (n 455, m 455)): 79 ± 0 %
- Adsorption on the oil-gel phase, amount(%) ([1]; excipient Pluronic F68 (n 160, m 80)): 67 ± 3 %
- Adsorption on the oil-gel phase, amount(%) ([1]; excipient Pluronic L31 (n 3, m 1.5)): 28 ± 5%
- Adsorption on the oil-gel phase, amount(%) ([1]; excipient Pluronic L44 (n 20, m 10)): 25 ± 2%
- Adsorption on the oil-gel phase, amount(%) ([1]; excipient Pluronic L64 (n 27, m 13.5)): 32 ± 5%
- Adsorption on the oil-gel phase, amount(%) ([1]; excipient Pluronic P85 (n 54, m 27)): 40 ± 4 %
- Adsorption on the oil-gel phase, amount(%) ([1]; excipient Pluronic P103 (n 29, m 14.5)): 22 ± 7%
- Adsorption on the oil-gel phase, amount(%) ([1]; without excipient): 19 ± 7%
- solubility ([2]; 0.8% mucin aq. solution (sample 3)): 5.9 µg/mL (≈ 19.7 µM)
- solubility ([2]; 0.8% mucin aq. solution +3.5% PEG6000 (sample 4)): 6.9 µg/mL (≈ 23 µM)
- solubility ([2]; 6.2% BSA aq. solution (sample 5)): 18.0 µg/mL (≈ 60.1 µM)
- solubility ([2]; 6.2% BSA aq. solution +3.5% PEG6000 (sample 6)): 26.9 µg/mL (≈ 89.8 µM)
- increase in solubility when Macrogol 6000 was added ([2]; BSA solution, sample 6 vs 5): 1.5 fold
- increase in solubility when Macrogol 6000 was added ([2]; aqueous mucin solution, sample 4 vs 3): 1.2 fold
- solubility ([2]; distilled water +3.5% PEG6000 (sample 2)): 0.1 µg/mL (≈ 0.334 µM)
- solubility ([2]; distilled water, no PEG6000 (sample 1)): 0.1 µg/mL (≈ 0.334 µM)
- solubility ([2]; linoleic acid (sample 7)): 135.0 µg/mL (≈ 451 µM)
- solubility ([2]; linoleic acid +10% PEG6000 (sample 8)): 110.0 µg/mL (≈ 367 µM)
- minimum concentration at which an increase in bacteria is inhibited (H. pylori [3]): 0.025 µg/mL
- augmentation of the in vivo anti-H. pylori activity (H. pylori [4]; 0.2% Macrogol 6000 added vs 0.5% MC suspension alone): 10 fold
- clearance (H. pylori [4]; 0.2% Macrogol 6000 in 0.5% MC suspension, dose of 0.1 mg/kg or higher): ≥ 80%
- in vivo anti-H. pylori activity with Macrogol 6000 compared to without (H. pylori [4]; 0.2% of Macrogol 6000 added): augmentation of in vivo anti-H. pylori activity was seen
- Clearance ratio (H. pylori [4]; PEG6000 0%, dose 0.1 mg/kg): (0/5)
- Clearance rate (H. pylori [4]; PEG6000 0%, dose 0.1 mg/kg): 0%
- Clearance ratio (H. pylori [4]; PEG6000 0%, dose 0.3 mg/kg): (1/5)
- Clearance rate (H. pylori [4]; PEG6000 0%, dose 0.3 mg/kg): 20%
- Clearance ratio (H. pylori [4]; PEG6000 0%, dose 1 mg/kg): (4/5)
- Clearance rate (H. pylori [4]; PEG6000 0%, dose 1 mg/kg): 80%
- Clearance rate (H. pylori [4]; PEG6000 0%, dose 1 mg/kg, listed as chemical compound A): 80%
- Clearance ratio (H. pylori [4]; PEG6000 0%, dose 3 mg/kg): (4/5)
- Clearance rate (H. pylori [4]; PEG6000 0%, dose 3 mg/kg): 80%
- Clearance ratio (H. pylori [4]; PEG6000 0.2%, dose 0.1 mg/kg): (4/5)
- Clearance rate (H. pylori [4]; PEG6000 0.2%, dose 0.1 mg/kg): 80%
- Clearance ratio (H. pylori [4]; PEG6000 0.2%, dose 0.3 mg/kg): (4/4)
- Clearance rate (H. pylori [4]; PEG6000 0.2%, dose 0.3 mg/kg): 100%
- Clearance ratio (H. pylori [4]; PEG6000 0.2%, dose 1 mg/kg): (4/5)
- Clearance rate (H. pylori [4]; PEG6000 0.2%, dose 1 mg/kg): 80%
- Clearance ratio (H. pylori [4]; PEG6000 0.2%, dose 3 mg/kg): (4/4)
- Clearance rate (H. pylori [4]; PEG6000 0.2%, dose 3 mg/kg): 100%
- drug adsorbed at the surface of the oil phase, % of the drug that was added ([5]; compound A-mucin suspension with Macrogol 6000, average): 93%
- drug adsorbed at the surface of the oil phase, % of the charged amount ([5]; compound A-mucin suspension, no Macrogol 6000): 47%
- adsorption amount of chemical compound A ([5]; mucin (+), with 3.5% PEG6000): 506 µg
- adsorption amount of chemical compound A ([5]; mucin (+), with 3.5% PEG6000, listed as chemical compound A): 506 ± 53 µg
- adsorption amount of chemical compound A ([5]; mucin (+), without PEG6000): 259 µg
- adsorption amount of chemical compound A ([5]; mucin (+), without PEG6000, listed as chemical compound A): 259 ± 63 µg
- adsorption amount of chemical compound A ([5]; mucin (−), with 3.5% PEG6000): 173 ± 25 µg
- adsorption amount of chemical compound A ([5]; mucin (−), without PEG6000): 249 ± 24 µg
- increase in amount adsorbed on the oil phase when Macrogol 6000 was added ([5]; mucin suspension, with vs without Macrogol 6000): 2.0 fold
- number of live bacteria in vivo (H. pylori [6]): reduction in the number of live bacteria in vivo

SMILES: Cc1cccc(NC(=O)N[C@@H]2N=C(c3ccccc3)c3ccccc3N(CC(=O)c3ccccc3C)C2=O)c1 [compound B, (R)-1-[2,3-dihydro-1-(2′-methylphenacyl)-2-oxo-5-phenyl-1H-1,4-benzodiazepin-3-yl]-3-(3-methylphenyl)urea]
- adsorption amount of chemical compound ([7]; with 3.5% PEG6000): 411 ± 3 µg
- adsorption amount of chemical compound ([7]; without PEG6000): 269 ± 13 µg

SMILES: Cc1nc2c([nH]1)-c1ccccc1N(C(=O)c1ccc(NC(=O)c3ccccc3-c3ccccc3)cc1)CC2.Cl [compound C, 4′-[(2-methyl-1,4,5,6-tetrahydroimidazo[4,5-d][1]benzazepin-6-yl)carbonyl]-2-phenylbenzanilide hydrochloride]
- adsorption amount of chemical compound ([7]; with 3.5% PEG6000): 370 ± 12 µg
- adsorption amount of chemical compound ([7]; without PEG6000): 335 ± 10 µg

SMILES: COC(=O)C1=C(C)NC(C)=C(C(=O)OCCN(C)Cc2ccccc2)C1c1cccc([N+](=O)[O-])c1 (stereo not shown) [nicardipine, nicardipine hydrochloride, reference compound]
- adsorption amount of chemical compound ([7]; with 3.5% PEG6000): 96 ± 5 µg
- adsorption amount of chemical compound ([7]; without PEG6000): 47 ± 6 µg
